Non-standard residues stand in square brackets, D forms with d. No end group written: not given here. sY = N[C@@H](Cc1ccc(OS(=O)(=O)O)cc1)C(=O)O
What was measured:
[1] = tested on: DmGPCR9; assay: calcium mobilization assay (FLIPR); format: cell-based, Drosophila melanogaster; settings: given in words
Method: Changes in intracellular calcium levels are another recognized indicator of G protein-coupled receptor activity, and such assays can be employed to screen for modulators of DmGPCR activity. For example, CHO cells stably transfected with a DmGPCR expression vector are plated at a density of 4×10^4 cells/well in Packard black-walled, 96-well plates specially designed to discriminate fluorescence signals emanating from the various wells on the plate. The cells are incubated for 60 minutes at 37° C. in modified Dulbecco's PBS (D-PBS) containing 36 mg/L pyruvate and 1 g/L glucose and one of four calcium indicator dyes (Fluo-3™ AM, Fluo-4™ AM, Calcium Green™-1 AM, or Oregon Green™ 488 BAPTA-1 AM), each at a concentration of 4 μM. […]
A calcium response is initiated by the addition of one or more candidate receptor agonist compounds, calcium ionophore A23187 (10 μM; positive control), or ATP (4 μM; positive control). Fluorescence is measured by Molecular Device's FLIPR with an argon laser (excitation at 488 nm). […] Basal fluorescence of cells was measured for 20 seconds prior to addition of candidate agonist, ATP, or A23187, and the basal fluorescence level was subtracted from the response signal. The calcium signal is measured for approximately 200 seconds, taking readings every two seconds. […]

[2] = tested on: DmGPCR9; assay: [35S]GTPγS binding assay, membranes of transfected CHO cells; format: biochemical, Drosophila melanogaster; settings: membranes from CHO cells transfected with DmGPCR9
Method: The transfected cells were washed once with ice-cold Dulbecco's phosphate buffered saline (PBS), 5 ml per 10 cm plate, and scraped into 5 ml of the same buffer. Cell suspensions from multiple plates were combined and centrifuged at 500×g for 10 min at 4° C. The cell pellet was reconstituted in ice-cold TEE (25 mM TRIS, 5 mM EGTA, 5 mM EDTA). Convenient aliquots were snap-frozen in liquid nitrogen and stored at −70° C. After thawing, the cells were homogenized and centrifuged at 4° C., 500×g for 5 minutes to pellet nuclei and unbroken cells. The supernatant was centrifuged at 47,000×g for 30 minutes at 4° C. […] Membrane protein concentration was determined using the BCA Protein Assay Reagent from Pierce (Rockford, Ill.) and BSA as standard. […]
Ligand-induced stimulation of [^35S]GTPγS binding was expressed as fold increase over the basal activity with no ligand added. Each treatment was run either in triplicate, or, on occasion, in duplicate, and the binding (cpm) was calculated as means +/− standard deviations. Dose-response curves for the receptor/ligand systems were analyzed using a non-linear least square SAS model, y=Bmax X/(Kd+X). Other dose-response curves were analyzed using Prism (GraphPad Software, Inc. San Diego, Calif.) and the following equation y=Bottom+(Top−Bottom)/(1+10^LogEC50-X). […]

Chain of DmGPCR9 (as listed by the source): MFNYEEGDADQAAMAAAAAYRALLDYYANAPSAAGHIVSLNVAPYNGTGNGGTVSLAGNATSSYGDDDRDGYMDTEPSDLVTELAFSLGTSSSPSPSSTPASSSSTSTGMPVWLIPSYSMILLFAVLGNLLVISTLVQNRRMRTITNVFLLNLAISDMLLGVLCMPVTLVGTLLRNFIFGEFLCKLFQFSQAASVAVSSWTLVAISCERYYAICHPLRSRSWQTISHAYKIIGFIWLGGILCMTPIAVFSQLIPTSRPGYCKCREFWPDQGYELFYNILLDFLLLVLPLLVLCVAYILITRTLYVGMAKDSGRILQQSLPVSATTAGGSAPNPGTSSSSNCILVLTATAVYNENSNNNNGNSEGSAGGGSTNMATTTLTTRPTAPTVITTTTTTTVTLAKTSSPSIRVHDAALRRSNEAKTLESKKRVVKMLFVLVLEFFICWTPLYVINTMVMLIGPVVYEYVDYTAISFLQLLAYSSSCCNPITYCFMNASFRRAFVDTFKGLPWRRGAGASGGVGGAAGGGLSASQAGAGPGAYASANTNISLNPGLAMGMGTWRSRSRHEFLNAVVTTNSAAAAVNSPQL

FDDY(SO3H)GHLRF-NH2 (FDD[sY]GHLRF-NH2; N-terminus assumed; SMILES CC(C)C[C@H](NC(=O)[C@H](Cc1c[nH]cn1)NC(=O)CNC(=O)[C@H](Cc1ccc(OS(=O)(=O)O)cc1)NC(=O)[C@H](CC(=O)O)NC(=O)[C@H](CC(=O)O)NC(=O)[C@@H](N)Cc1ccccc1)C(=O)N[C@@H](CCCNC(=N)N)C(=O)N[C@@H](Cc1ccccc1)C(N)=O)
EC50, calcium mobilization assay [1]: low nanomolar range | GTPγS responses [2]: no GTPγS responses

Reference: patent US7364866B2, “Drosophila G protein coupled receptors, nucleic acids, and methods related to the same” (Pharmacia & Upjohn Company, priority 1999, dated 2008)
